Experimental data taken from ChEMBL document CHEMBL1137340, “Binding of 13-amidohuprines to acetylcholinesterase: exploring the ligand-induced conformational change of the gly117-gly118 peptide bond in the oxyanion hole” (J Med Chem, 2006).

Assays:
Acetylcholinesterase [1] = molecular target: T1, Acetylcholinesterase (Bos taurus, UniProt P23795)
T1 sequence (P23795 whole entry): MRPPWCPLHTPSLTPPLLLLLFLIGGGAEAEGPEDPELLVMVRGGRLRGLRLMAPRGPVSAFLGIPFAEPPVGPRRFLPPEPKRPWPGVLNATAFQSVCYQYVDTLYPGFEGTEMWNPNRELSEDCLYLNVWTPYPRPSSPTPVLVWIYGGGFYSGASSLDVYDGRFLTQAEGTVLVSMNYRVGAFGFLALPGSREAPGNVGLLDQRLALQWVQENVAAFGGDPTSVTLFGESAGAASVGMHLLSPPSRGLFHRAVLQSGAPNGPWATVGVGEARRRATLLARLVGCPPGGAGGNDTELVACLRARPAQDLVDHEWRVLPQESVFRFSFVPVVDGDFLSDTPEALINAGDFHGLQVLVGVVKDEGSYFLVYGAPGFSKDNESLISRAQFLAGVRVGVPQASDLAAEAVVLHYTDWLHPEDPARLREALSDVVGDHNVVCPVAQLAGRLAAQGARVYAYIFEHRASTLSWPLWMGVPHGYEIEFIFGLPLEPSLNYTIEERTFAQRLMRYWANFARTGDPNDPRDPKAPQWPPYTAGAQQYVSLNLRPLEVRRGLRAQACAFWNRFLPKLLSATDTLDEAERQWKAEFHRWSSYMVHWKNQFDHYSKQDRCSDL
Description: Inhibition of bovine erythrocyte AChE

Acetylcholinesterase [2] = molecular target: T1, Acetylcholinesterase; remark: listed apart in the source
Description: Inhibition of bovine erythrocyte AChE after 45 mins

Cholinesterase = Cholinesterase (Homo sapiens, UniProt P06276)
Description: Inhibition of human serum BChE

Acetylcholinesterase [3] = molecular target: Acetylcholinesterase (Homo sapiens, UniProt P22303)
Acetylcholinesterase (Homo sapiens, UniProt P22303), sequence (P22303 whole entry): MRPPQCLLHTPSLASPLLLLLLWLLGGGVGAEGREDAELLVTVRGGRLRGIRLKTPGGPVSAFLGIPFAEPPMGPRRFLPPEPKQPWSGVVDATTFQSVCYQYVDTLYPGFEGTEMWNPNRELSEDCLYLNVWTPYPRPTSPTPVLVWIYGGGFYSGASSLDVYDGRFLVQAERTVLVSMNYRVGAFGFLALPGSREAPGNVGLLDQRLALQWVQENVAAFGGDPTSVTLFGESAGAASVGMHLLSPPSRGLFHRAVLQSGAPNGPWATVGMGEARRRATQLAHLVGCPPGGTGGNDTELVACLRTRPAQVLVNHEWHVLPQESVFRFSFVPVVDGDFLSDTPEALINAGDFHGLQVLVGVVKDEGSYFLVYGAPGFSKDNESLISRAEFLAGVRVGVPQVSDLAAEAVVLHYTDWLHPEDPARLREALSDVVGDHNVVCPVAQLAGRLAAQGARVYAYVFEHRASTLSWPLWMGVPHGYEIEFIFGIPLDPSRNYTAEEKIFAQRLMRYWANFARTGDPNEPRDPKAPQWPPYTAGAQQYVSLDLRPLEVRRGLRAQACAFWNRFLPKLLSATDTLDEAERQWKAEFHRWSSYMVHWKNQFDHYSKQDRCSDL
Description: Inhibition of human erythrocyte AChE

Cholinesterase, sequence (P06276 whole entry): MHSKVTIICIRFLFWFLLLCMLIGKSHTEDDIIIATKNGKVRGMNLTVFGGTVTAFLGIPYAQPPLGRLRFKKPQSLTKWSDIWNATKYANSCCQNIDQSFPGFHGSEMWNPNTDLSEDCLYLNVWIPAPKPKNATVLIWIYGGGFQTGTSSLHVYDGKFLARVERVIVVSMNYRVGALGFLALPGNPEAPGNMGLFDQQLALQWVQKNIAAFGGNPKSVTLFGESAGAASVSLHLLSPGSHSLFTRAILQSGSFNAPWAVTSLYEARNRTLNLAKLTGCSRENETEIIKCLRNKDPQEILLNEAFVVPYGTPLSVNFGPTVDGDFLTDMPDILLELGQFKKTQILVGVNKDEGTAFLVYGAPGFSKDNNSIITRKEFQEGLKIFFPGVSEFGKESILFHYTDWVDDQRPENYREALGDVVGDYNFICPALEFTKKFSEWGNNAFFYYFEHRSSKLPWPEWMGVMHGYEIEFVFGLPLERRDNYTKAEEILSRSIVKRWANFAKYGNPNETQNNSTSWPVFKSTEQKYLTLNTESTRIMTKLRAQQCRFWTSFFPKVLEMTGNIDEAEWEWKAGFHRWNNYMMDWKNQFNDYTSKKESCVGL

Structure (SMILES) | IC50 (Acetylcholinesterase [1]) | IC50 (Acetylcholinesterase [2]) | IC50 (Cholinesterase) | IC50 (Acetylcholinesterase [3])
CC1=C[C@@H]2Cc3nc4cc(Cl)ccc4c(N)c3[C@H](C1)C2 | 1.15 nM |  |  | 
CCC1=C[C@@H]2Cc3nc4cc(C)ccc4c(N)c3[C@H](C1)C2 | 4.5 nM |  |  | 
CC12CC3Cc4nc5cc(Cl)ccc5c(N)c4C(C1)C3N2S(C)(=O)=O (racemic) | 1320 nM | 304 nM | 9220 nM | 
CC(=O)NC1C2C=C(C)CC1c1c(nc3cc(Cl)ccc3c1N)C2 (racemic; form 1) | 1690 nM | 1370 nM | 8490 nM | 
CC1=CC2Cc3nc4cc(Cl)ccc4c(N)c3C(C1)C2NS(C)(=O)=O (racemic; form 1) | 118 nM | 39 nM | > 10000 nM | 40.5 nM
CC1=CC2Cc3nc4cc(Cl)ccc4c(N)c3C(C1)C2NC=O (racemic; form 2) |  |  | 3980 nM | 
CCC1=CC2Cc3nc4cc(Cl)ccc4c(N)c3C(C1)C2 (racemic) | 2.77 nM |  |  | 
CCC1=C[C@@H]2Cc3nc4cc(Cl)ccc4c(N)c3[C@H](C1)C2 | 1.3 nM |  |  | 
CC(=O)NC1C2C=C(C)CC1c1c(nc3cc(Cl)ccc3c1N)C2 (racemic; form 2) |  | 1330 nM | > 10000 nM | 
CC1=CC2Cc3nc4cc(Cl)ccc4c(N)c3C(C1)C2N (racemic; form 2) | 482 nM | 478 nM | 601 nM | 
CC1=CC2Cc3nc4cc(Cl)ccc4c(N)c3C(C1)C2N (racemic; form 1) | 389 nM | 447 nM | 6480 nM | 225 nM
CCC1=C[C@@H]2Cc3nc4ccccc4c(N)c3[C@H](C1)C2 | 27.4 nM |  |  | 
CC1=CC2Cc3nc4cc(Cl)ccc4c(N)c3C(C1)C2NS(C)(=O)=O (racemic; form 2) | 1370 nM | 2450 nM |  | 
CC1=CC2Cc3nc4cc(Cl)ccc4c(N)c3C(C1)C2NC=O (racemic; form 1) |  |  | > 10000 nM | 98 nM
CC12CC3Cc4nc5cc(Cl)ccc5c(N)c4C(C1)C3N2 (racemic) | 5680 nM | 4380 nM | > 10000 nM | 
